{
  "source": "patent US8748445B2",
  "about": "“Methods for treating glioma” (The UAB Research Foundation, priority 2004, dated 2014)",
  "key": {"[1]": {"system": "cultured glioma cells", "experiment": "glutathione levels in cultured glioma cells (monochlorobimane assay)", "type": "cell-based, human", "experimental": "(§1) The control group and treatment group animals were those described in FIG. 7A above. For these experiments, four mice (two control and two treatment) were sacrificed at 44 days after tumor induction, and brains were rapidly frozen and cryosectioned to […], thawed on ice, and then incubated with 100 μM monochlorobimane for 10 min. Fluorescence intensities were examined using a quantitative fluorescence imaging system comparing side-by-side slices from control group and treatment group animals. In these experiments, 10 slices were examined per animal. […] After treatment with 8 mg sulfasalazine 2 times per day, glutathione levels decreased approximately 30% (from 100+/−5.6 to 71.7+/−7.5 fluorescence units; p 0.01; t test) in tumors as compared with control animals (receiving saline alone). In parallel studies, the same assay was used on cultured glioma cells to validate these readouts. A 30% decrease in glutathione levels correlates with the glutathione depletion achieved with 70 μM sulfasalazine administered for 24 h to cultured cells; the maximal decrease achieved with 250 μM sulfasalazine in cultured U87-MG cells was 68% (data not shown)."}, "[2]": {"system": "primary astrocyte cultures", "experiment": "growth of primary astrocyte cultures", "type": "cell-based", "details": "(S)-4-CPG 0.25 mM and 0.5 mM (FIG. 3C); sulfasalazine data not shown"}, "[3]": {"system": "D54-MG glioma cells", "experiment": "histological markers of cell death and proliferation in tumor sections", "type": "in vivo, CB-17 scid mice", "from_the_text": "To further examine effects of sulfasalazine in vivo at the cellular level, the tumor sections were examined with commonly used histological markers for cell death, including ApopTag/methyl green (FIGS. 8A and 8B) and terminal deoxynucleotidyl transferase-mediated biotinylated UTP nick end labeling (TUNEL) (FIGS. 8C and 8D), and proliferation (Ki-67) (FIGS. 8E and 8F). Multiple fields from several serial sections from two control group and two treatment group animals (see description above regarding FIG. 7A) were examined. […] Indeed, necrosis is a hallmark of grade IV gliomas and a necessary feature for their histopathological grading as such. At a higher resolution (40×), significant cell death was observed as evident from TUNEL (FIG. 8C) and caspase-3 staining (data not shown). In these figures, TUNEL staining is indicated by a lighter green color against a background of DAPI staining."}, "[4]": {"system": "D54-MG glioma cells", "experiment": "glutathione levels in tumor sections (monochlorobimane fluorescence)", "type": "in vivo, CB-17 scid mice", "details": "8 mg 2 times per day, 44 days after tumor induction", "experimental": "as §1"}},
  "data": [
    {"compound": "O=C(O)c1cc(/N=N/c2ccc(S(=O)(=O)Nc3ccccn3)cc2)ccc1O", "note": "[sulfasalazine]", "values": [
      {"measurement": "decrease in glutathione levels in cultured cells", "setting": "[1]; 70 μM for 24 h", "value": 30, "unit": "%"},
      {"measurement": "maximal decrease in glutathione levels", "setting": "[1]; 250 μM, cultured U87-MG cells, data not shown", "value": 68, "unit": "%"},
      {"measurement": "growth of primary astrocyte cultures", "setting": "[2]", "value": "Neither (S)-4-CPG (FIG. 3C) nor sulfasalazine (data not shown) affected"},
      {"measurement": "tumor necrosis (ApopTag)", "setting": "[3]; sulfasalazine-treated animals of FIG. 7A (FIG. 8B)", "value": "almost no evidence for necrosis"},
      {"measurement": "Ki-67 index", "setting": "[3]; sulfasalazine-treated tumor sections, similar to control, no significant difference", "value": "approximately 15"},
      {"measurement": "TUNEL labeling in tumor sections", "setting": "[3]; sulfasalazine-treated versus control (FIG. 8D), not statistically significant", "value": "reduced TUNEL"},
      {"measurement": "caspase-3 labeling in tumor sections", "setting": "[3]; sulfasalazine-treated versus control, data not shown", "value": "reduced"},
      {"measurement": "glutathione levels in tumors", "setting": "[4]; control 100+/−5.6", "value": "71.7+/−7.5 fluorescence units"},
      {"measurement": "decrease of glutathione levels in tumors", "setting": "[4]; versus saline control", "value": "approximately 30%"}
    ]}
  ]
}
